Assay results published in ChEMBL document CHEMBL1177732, “Triterpene saponins from Clematis chinensis and their potential anti-inflammatory activity” (J Nat Prod, 2010).

Legend:
[1] = biological target: Prostaglandin G/H synthase 1 (Homo sapiens, UniProt P23219); assay: Inhibition of COX1 by microplate reader
[2] = biological target: T1, Prostaglandin G/H synthase 2 (Homo sapiens, UniProt P35354); assay: Inhibition of COX2 by microplate reader
T1 sequence (P35354 whole entry): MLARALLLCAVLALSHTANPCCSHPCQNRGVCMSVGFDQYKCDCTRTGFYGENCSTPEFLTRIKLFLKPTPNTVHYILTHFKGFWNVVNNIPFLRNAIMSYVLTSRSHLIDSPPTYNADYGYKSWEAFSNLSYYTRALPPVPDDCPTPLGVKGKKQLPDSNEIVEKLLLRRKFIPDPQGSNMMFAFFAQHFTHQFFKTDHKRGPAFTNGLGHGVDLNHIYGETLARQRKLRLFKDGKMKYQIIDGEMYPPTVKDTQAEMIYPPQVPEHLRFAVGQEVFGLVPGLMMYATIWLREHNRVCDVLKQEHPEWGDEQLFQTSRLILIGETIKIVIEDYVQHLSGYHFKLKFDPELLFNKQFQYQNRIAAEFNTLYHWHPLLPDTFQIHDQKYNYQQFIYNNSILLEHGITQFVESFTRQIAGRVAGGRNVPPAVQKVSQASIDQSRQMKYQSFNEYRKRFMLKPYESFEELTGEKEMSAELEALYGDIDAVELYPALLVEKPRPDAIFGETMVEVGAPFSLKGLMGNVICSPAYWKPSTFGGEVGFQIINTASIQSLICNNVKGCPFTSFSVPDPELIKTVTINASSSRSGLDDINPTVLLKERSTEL

Sequence of Prostaglandin G/H synthase 1 (P23219 whole entry): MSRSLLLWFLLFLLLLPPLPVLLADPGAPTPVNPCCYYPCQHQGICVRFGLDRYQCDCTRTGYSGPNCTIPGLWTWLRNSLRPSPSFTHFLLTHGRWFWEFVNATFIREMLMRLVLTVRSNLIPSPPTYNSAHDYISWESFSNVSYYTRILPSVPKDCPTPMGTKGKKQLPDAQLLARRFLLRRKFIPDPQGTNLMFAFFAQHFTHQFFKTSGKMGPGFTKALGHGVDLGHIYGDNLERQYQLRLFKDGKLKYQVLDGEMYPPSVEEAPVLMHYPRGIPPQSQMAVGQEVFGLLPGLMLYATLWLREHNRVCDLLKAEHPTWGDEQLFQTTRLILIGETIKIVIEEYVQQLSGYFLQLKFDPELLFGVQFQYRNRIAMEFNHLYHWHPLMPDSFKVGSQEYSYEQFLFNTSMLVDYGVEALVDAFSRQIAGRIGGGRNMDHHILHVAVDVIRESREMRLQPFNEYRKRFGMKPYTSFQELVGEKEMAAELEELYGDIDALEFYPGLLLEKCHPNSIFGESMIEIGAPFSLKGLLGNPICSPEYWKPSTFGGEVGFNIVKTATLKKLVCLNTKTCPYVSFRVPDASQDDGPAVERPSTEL

Row | SMILES | IC50 [1] | IC50 [2]
1 | C[C@@H]1O[C@@H](O[C@H]2[C@H](O)[C@@H](O)[C@H](OC[C@H]3O[C@@H](OC(=O)[C@]45CCC(C)(C)C[C@H]4C4=CC[C@@H]6[C@@]7(C)CC[C@H](O[C@@H]8OC[C@H](O)[C@H](O)[C@H]8O[C@@H]8O[C@@H](C)[C@H](O)[C@@H](O[C@@H]9OC[C@@H](O)[C@@H](O)[C@H]9O)[C@H]8O)C(C)(C)[C@@H]7CC[C@@]6(C)[C@]4(C)CC5)[C@H](O)[C@@H](O)[C@@H]3O)O[C@@H]2CO)[C@H](O)[C@H](O)[C@H]1O [HUZHANGOSIDE B] | > 50 µM | > 50 µM
2 | COc1ccc(/C=C/C(=O)O[C@H]2[C@H](O[C@H]3[C@H](O)[C@@H](O)[C@H](O[C@@H]4CO[C@@H](O[C@@H]5[C@@H](O)[C@H](C)O[C@@H](O[C@H]6[C@H](O[C@H]7CC[C@@]8(C)[C@@H](CC[C@]9(C)[C@@H]8CC=C8[C@@H]%10CC(C)(C)CC[C@]%10(C(=O)O[C@@H]%10O[C@H](CO[C@@H]%11O[C@H](CO)[C@@H](O[C@@H]%12O[C@@H](C)[C@H](O)[C@@H](O)[C@H]%12O)[C@H](O)[C@H]%11O)[C@@H](O)[C@H](O)[C@H]%10O)CC[C@]89C)[C@]7(C)CO)OC[C@@H](O)[C@@H]6O)[C@@H]5O)[C@H](O)[C@@H]4O)O[C@@H]3CO)O[C@H](CO)[C@@H](O)[C@@H]2O[C@@H]2O[C@H](CO[C@@H]3O[C@@H](C)[C@H](O)[C@@H](O)[C@H]3O)[C@@H](O[C@@H]3O[C@H](CO)[C@@H](O)[C@H](O)[C@H]3O)[C@H](O)[C@H]2O)cc1O [CLEMATOCHINENOSIDE C] | 6.3 µM | 6.1 µM
3 | COc1ccc(/C=C/C(=O)OC[C@H]2O[C@@H](O[C@H]3[C@H](O)[C@@H](O)[C@H](O[C@@H]4CO[C@@H](O[C@@H]5[C@@H](O)[C@H](C)O[C@@H](O[C@H]6[C@H](O[C@H]7CC[C@]8(C)[C@H]9CC=C%10[C@@H]%11CC(C)(C)CC[C@]%11(C(=O)O[C@@H]%11O[C@H](CO[C@@H]%12O[C@H](CO)[C@@H](O[C@@H]%13O[C@@H](C)[C@H](O)[C@@H](O)[C@H]%13O)[C@H](O)[C@H]%12O)[C@@H](O)[C@H](O)[C@H]%11O)CC[C@@]%10(C)[C@]9(C)CC[C@H]8C7(C)C)OC[C@@H](O)[C@@H]6O)[C@@H]5O)[C@H](O)[C@@H]4O)O[C@@H]3CO)[C@H](O)[C@@H](O)[C@@H]2O)cc1O [CLEMATOCHINENOSIDE F] | 7.8 µM | 7.2 µM
4 | COc1ccc(/C=C/C(=O)O[C@@H]2[C@@H](O)[C@H](O[C@H]3[C@H](O)[C@@H](O)[C@H](O[C@@H]4CO[C@@H](O[C@@H]5[C@@H](O)[C@H](C)O[C@@H](O[C@H]6[C@H](O[C@H]7CC[C@]8(C)[C@H]9CC=C%10[C@@H]%11CC(C)(C)CC[C@]%11(C(=O)O[C@@H]%11O[C@H](CO[C@@H]%12O[C@H](CO)[C@@H](O[C@@H]%13O[C@@H](C)[C@H](O)[C@@H](O)[C@H]%13O)[C@H](O)[C@H]%12O)[C@@H](O)[C@H](O)[C@H]%11O)CC[C@@]%10(C)[C@]9(C)CC[C@H]8C7(C)C)OC[C@H](O)[C@@H]6O)[C@@H]5O)[C@H](O)[C@@H]4O)O[C@@H]3CO)O[C@H](CO)[C@H]2O)cc1O [CLEMATERNOSIDE B] | 8 µM | 7.6 µM
5 | COc1ccc(/C=C/C(=O)O[C@H]2[C@H](O[C@H]3[C@H](O)[C@@H](O)[C@H](O[C@@H]4CO[C@@H](O[C@@H]5[C@@H](O)[C@H](C)O[C@@H](O[C@H]6[C@H](O[C@H]7CC[C@@]8(C)[C@@H](CC[C@]9(C)[C@@H]8CC=C8[C@@H]%10CC(C)(C)CC[C@]%10(C(=O)O[C@@H]%10O[C@H](CO[C@@H]%11O[C@H](CO)[C@@H](O[C@@H]%12O[C@@H](C)[C@H](O)[C@@H](O)[C@H]%12O)[C@H](O)[C@H]%11O)[C@@H](O)[C@H](O)[C@H]%10O)CC[C@]89C)[C@]7(C)CO)OC[C@@H](O)[C@@H]6O)[C@@H]5O)[C@H](O)[C@@H]4O)O[C@@H]3CO)O[C@H](CO)[C@@H](O)[C@@H]2O[C@@H]2O[C@H](CO)[C@@H](O)[C@H](O)[C@H]2O)cc1O [CLEMATOCHINENOSIDE G] | 7.5 µM | 8.9 µM
6 | C[C@@H]1O[C@@H](O[C@H]2[C@H](O)[C@@H](O)[C@H](OC[C@H]3O[C@@H](OC(=O)[C@]45CCC(C)(C)C[C@H]4C4=CC[C@@H]6[C@@]7(C)CC[C@H](O[C@@H]8OC[C@H](O)[C@H](O)[C@H]8O[C@@H]8O[C@@H](C)[C@H](O)[C@@H](O[C@@H]9OC[C@@H](O[C@@H]%10O[C@H](CO)[C@@H](O)[C@H](O)[C@H]%10O)[C@@H](O)[C@H]9O)[C@H]8O)C(C)(C)[C@@H]7CC[C@@]6(C)[C@]4(C)CC5)[C@H](O)[C@@H](O)[C@@H]3O)O[C@@H]2CO)[C@H](O)[C@H](O)[C@H]1O [CLEMATICHINENOSIDE C] | > 50 µM | > 50 µM
7 | C[C@@H]1O[C@@H](O[C@H]2[C@H](O)[C@@H](O)[C@H](OC[C@H]3O[C@@H](OC(=O)[C@]45CCC(C)(C)C[C@H]4C4=CC[C@@H]6[C@@]7(C)CC[C@H](O[C@@H]8OC[C@H](O)[C@H](O)[C@H]8O[C@@H]8O[C@@H](C)[C@H](O)[C@@H](O[C@@H]9OC[C@@H](O[C@@H]%10O[C@H](CO)[C@@H](O)[C@H](O)[C@H]%10O)[C@@H](O)[C@H]9O)[C@H]8O)[C@@](C)(CO)[C@@H]7CC[C@@]6(C)[C@]4(C)CC5)[C@H](O)[C@@H](O)[C@@H]3O)O[C@@H]2CO)[C@H](O)[C@H](O)[C@H]1O [CLEMATICHINENOSIDE B] | > 50 µM | > 50 µM
8 | C[C@@H]1O[C@@H](O[C@H]2[C@H](O)[C@@H](O)[C@H](OC[C@H]3O[C@@H](OC(=O)[C@]45CCC(C)(C)C[C@H]4C4=CC[C@@H]6[C@@]7(C)CC[C@H](O[C@@H]8OC[C@H](O)[C@H](O)[C@H]8O)[C@@](C)(CO)[C@@H]7CC[C@@]6(C)[C@]4(C)CC5)[C@H](O)[C@@H](O)[C@@H]3O)O[C@@H]2CO)[C@H](O)[C@H](O)[C@H]1O [CAULOSIDE D] | > 50 µM | > 50 µM
9 | C[C@@H]1O[C@@H](O[C@H]2[C@H](O)[C@@H](O)[C@H](OC[C@H]3O[C@@H](OC(=O)[C@]45CCC(C)(C)C[C@H]4C4=CC[C@@H]6[C@@]7(C)CC[C@H](O[C@@H]8OC[C@H](O)[C@H](O)[C@H]8O[C@@H]8O[C@@H](C)[C@H](O)[C@@H](O[C@@H]9OC[C@@H](O)[C@@H](O)[C@H]9O)[C@H]8O)[C@@](C)(CO)[C@@H]7CC[C@@]6(C)[C@]4(C)CC5)[C@H](O)[C@@H](O)[C@@H]3O)O[C@@H]2CO)[C@H](O)[C@H](O)[C@H]1O [HUZHANGOSIDE D] | > 50 µM | > 50 µM
10 | C[C@@H]1O[C@@H](O[C@H]2[C@H](O)[C@@H](O)[C@H](OC[C@H]3O[C@@H](OC(=O)[C@]45CCC(C)(C)C[C@H]4C4=CC[C@@H]6[C@@]7(C)CC[C@H](O)[C@@](C)(CO)[C@@H]7CC[C@@]6(C)[C@]4(C)CC5)[C@H](O)[C@@H](O)[C@@H]3O)O[C@@H]2CO)[C@H](O)[C@H](O)[C@H]1O [KIZUTA CIRENSENOSIDE O SAPONIN K3] | > 50 µM | > 50 µM
11 | COc1ccc(/C=C/C(=O)O[C@@H]2[C@@H](O)[C@H](O[C@H]3[C@H](O)[C@@H](O)[C@H](O[C@@H]4CO[C@@H](O[C@@H]5[C@@H](O)[C@H](C)O[C@@H](O[C@H]6[C@H](O[C@H]7CC[C@@]8(C)[C@@H](CC[C@]9(C)[C@@H]8CC=C8[C@@H]%10CC(C)(C)CC[C@]%10(C(=O)O[C@@H]%10O[C@H](CO[C@@H]%11O[C@H](CO)[C@@H](O[C@@H]%12O[C@@H](C)[C@H](O)[C@@H](O)[C@H]%12O)[C@H](O)[C@H]%11O)[C@@H](O)[C@H](O)[C@H]%10O)CC[C@]89C)[C@]7(C)CO)OC[C@@H](O)[C@@H]6O)[C@@H]5O)[C@H](O)[C@@H]4O)O[C@@H]3CO)O[C@H](CO)[C@H]2O)cc1O [CLEMATOCHINENOSIDE D] | 8.8 µM | 7.8 µM
